Reference: PubChem BioAssay (NCI)
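A five-concentration, 48-hour dose response in 96-well plates underlies each endpoint, interpolated linearly between surrounding concentrations. The concentration for full growth arrest is given as TGI.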

What was measured:
Assay in all cases: growth of human tumour cells (NCI), 48 h
SK-OV-3 ovarian = system: SK-OV-3 ovarian
SN12C renal = system: SN12C renal
LOX IMVI melanoma = system: LOX IMVI melanoma
SR leukemia = system: SR leukemia
HT29 colon = system: HT29 colon
DU-145 prostate = system: DU-145 prostate
ACHN renal = system: ACHN renal
U251 CNS = system: U251 CNS
A549 NSCLC = system: A549 NSCLC
OVCAR-3 ovarian = system: OVCAR-3 ovarian
SNB-19 CNS = system: SNB-19 CNS
MCF7 breast = system: MCF7 breast
UACC-62 melanoma = system: UACC-62 melanoma
KM12 colon = system: KM12 colon
NCI-H23 lung = system: NCI-H23 lung
MDA-MB-435 = system: MDA-MB-435
786-0 renal = system: 786-0 renal
BT-549 breast = system: BT-549 breast
M14 melanoma = system: M14 melanoma
RPMI-8226 leukemia = system: RPMI-8226 leukemia
MDA-MB-231 breast = system: MDA-MB-231 breast
PC-3 prostate = system: PC-3 prostate
NCI-H460 lung = system: NCI-H460 lung
HCT-15 colon = system: HCT-15 colon
IGROV1 ovarian = system: IGROV1 ovarian
UACC-257 melanoma = system: UACC-257 melanoma
NCI-H522 lung = system: NCI-H522 lung
EKVX NSCLC = system: EKVX NSCLC
T-47D breast = system: T-47D breast
K-562 leukemia = system: K-562 leukemia
HS 578T breast = system: HS 578T breast
COLO 205 colon = system: COLO 205 colon
MDA-N = system: MDA-N
TK-10 renal = system: TK-10 renal
RXF 393 renal = system: RXF 393 renal
CCRF-CEM leukemia = system: CCRF-CEM leukemia
SK-MEL-5 melanoma = system: SK-MEL-5 melanoma
MOLT-4 leukemia = system: MOLT-4 leukemia
HOP-62 NSCLC = system: HOP-62 NSCLC
HCT-116 colon = system: HCT-116 colon
SF-268 CNS = system: SF-268 CNS
MALME-3M melanoma = system: MALME-3M melanoma
CAKI-1 renal = system: CAKI-1 renal
SK-MEL-28 melanoma = system: SK-MEL-28 melanoma
SF-295 CNS = system: SF-295 CNS
NCI/ADR-RES ovarian = system: NCI/ADR-RES ovarian
OVCAR-4 ovarian = system: OVCAR-4 ovarian
UO-31 renal = system: UO-31 renal
HL-60(TB) leukemia = system: HL-60(TB) leukemia
OVCAR-5 ovarian = system: OVCAR-5 ovarian
OVCAR-8 ovarian = system: OVCAR-8 ovarian
SW-620 colon = system: SW-620 colon
SK-MEL-2 melanoma = system: SK-MEL-2 melanoma
SF-539 CNS = system: SF-539 CNS
A498 renal = system: A498 renal
HOP-92 NSCLC = system: HOP-92 NSCLC
SNB-75 CNS = system: SNB-75 CNS
HCC-2998 colon = system: HCC-2998 colon
NCI-H226 lung = system: NCI-H226 lung

## COc1ccc(C2Oc3ccc(Cl)cc3C=C2[N+](=O)[O-])cc1 (stereo not drawn)
SK-OV-3 ovarian
  TGI: > 100 µM
SN12C renal
  TGI: > 100 µM
LOX IMVI melanoma
  TGI: > 100 µM
SR leukemia
  TGI: > 100 µM
HT29 colon
  TGI: > 100 µM
DU-145 prostate
  TGI: > 100 µM
ACHN renal
  TGI: > 100 µM
U251 CNS
  TGI: > 100 µM
A549 NSCLC
  TGI: > 100 µM
OVCAR-3 ovarian
  TGI: > 100 µM
SNB-19 CNS
  TGI: > 100 µM
MCF7 breast
  TGI: > 100 µM
UACC-62 melanoma
  TGI: > 100 µM
KM12 colon
  TGI: > 100 µM
NCI-H23 lung
  TGI: > 100 µM
MDA-MB-435
  TGI: > 100 µM
786-0 renal
  TGI: > 100 µM
BT-549 breast
  TGI: > 100 µM
M14 melanoma
  TGI: > 100 µM
RPMI-8226 leukemia
  TGI: > 100 µM
MDA-MB-231 breast
  TGI: > 100 µM
PC-3 prostate
  TGI: > 100 µM
NCI-H460 lung
  TGI: > 100 µM
HCT-15 colon
  TGI: > 100 µM
IGROV1 ovarian
  TGI: > 100 µM
UACC-257 melanoma
  TGI: > 100 µM
NCI-H522 lung
  TGI: > 100 µM
EKVX NSCLC
  TGI: > 100 µM
T-47D breast
  TGI: > 100 µM
K-562 leukemia
  TGI: > 100 µM
HS 578T breast
  TGI: > 100 µM
COLO 205 colon
  TGI: > 100 µM
MDA-N
  TGI: > 100 µM
TK-10 renal
  TGI: > 100 µM
RXF 393 renal
  TGI: > 100 µM
CCRF-CEM leukemia
  TGI: > 100 µM
SK-MEL-5 melanoma
  TGI: > 100 µM
MOLT-4 leukemia
  TGI: > 100 µM
HOP-62 NSCLC
  TGI: > 100 µM
HCT-116 colon
  TGI: > 100 µM
SF-268 CNS
  TGI: > 100 µM
MALME-3M melanoma
  TGI: > 100 µM
CAKI-1 renal
  TGI: > 100 µM
SK-MEL-28 melanoma
  TGI: > 100 µM
SF-295 CNS
  TGI: > 100 µM
NCI/ADR-RES ovarian
  TGI: > 100 µM
OVCAR-4 ovarian
  TGI: > 100 µM
UO-31 renal
  TGI: > 100 µM
HL-60(TB) leukemia
  TGI: > 100 µM
OVCAR-5 ovarian
  TGI: > 100 µM
OVCAR-8 ovarian
  TGI: > 100 µM

## CC(=O)c1ccc(Oc2c3ccccc3nc3ccccc23)cc1
SK-OV-3 ovarian
  TGI: 29.3 µM
SN12C renal
  TGI: 16 µM
LOX IMVI melanoma
  TGI: 17.9 µM
HT29 colon
  TGI: 6.69 µM
DU-145 prostate
  TGI: 15.2 µM
ACHN renal
  TGI: 15.9 µM
U251 CNS
  TGI: 25.9 µM
A549 NSCLC
  TGI: 31.7 µM
SW-620 colon
  TGI: 20.5 µM
OVCAR-3 ovarian
  TGI: 21 µM
SNB-19 CNS
  TGI: 37.8 µM
MCF7 breast
  TGI: 12.1 µM
UACC-62 melanoma
  TGI: 17 µM
KM12 colon
  TGI: 22.7 µM
NCI-H23 lung
  TGI: 56.6 µM
MDA-MB-435
  TGI: 10.5 µM
786-0 renal
  TGI: 9.61 µM
BT-549 breast
  TGI: 27.1 µM
M14 melanoma
  TGI: 14.6 µM
RPMI-8226 leukemia
  TGI: 9.63 µM
MDA-MB-231 breast
  TGI: 25.5 µM
PC-3 prostate
  TGI: 20.3 µM
NCI-H460 lung
  TGI: 31.9 µM
HCT-15 colon
  TGI: 17.5 µM
IGROV1 ovarian
  TGI: 17.4 µM
SK-MEL-2 melanoma
  TGI: 21.4 µM
UACC-257 melanoma
  TGI: 15.4 µM
NCI-H522 lung
  TGI: 25.4 µM
SF-539 CNS
  TGI: 5.5 µM
EKVX NSCLC
  TGI: 35.1 µM
T-47D breast
  TGI: 18 µM
K-562 leukemia
  TGI: 20.1 µM
HS 578T breast
  TGI: 31.3 µM
COLO 205 colon
  TGI: 7.55 µM
MDA-N
  TGI: 14.2 µM
TK-10 renal
  TGI: 19.8 µM
A498 renal
  TGI: 31.8 µM
RXF 393 renal
  TGI: 21.3 µM
CCRF-CEM leukemia
  TGI: 8.43 µM
SK-MEL-5 melanoma
  TGI: 28.6 µM
HOP-92 NSCLC
  TGI: 25.6 µM
SNB-75 CNS
  TGI: 29.7 µM
HOP-62 NSCLC
  TGI: 29.5 µM
HCC-2998 colon
  TGI: 24 µM
HCT-116 colon
  TGI: 8.81 µM
SF-268 CNS
  TGI: 17.9 µM
MALME-3M melanoma
  TGI: 27.2 µM
CAKI-1 renal
  TGI: 17.3 µM
SK-MEL-28 melanoma
  TGI: 28.5 µM
SF-295 CNS
  TGI: 28.2 µM
NCI/ADR-RES ovarian
  TGI: 30.4 µM
OVCAR-4 ovarian
  TGI: 18.6 µM
UO-31 renal
  TGI: 13.2 µM
HL-60(TB) leukemia
  TGI: 0.463 µM
OVCAR-5 ovarian
  TGI: 23.9 µM
NCI-H226 lung
  TGI: 26.4 µM
OVCAR-8 ovarian
  TGI: 22.2 µM
